Here are results for 6 compounds from patent US20080300263A1, “Pyrazolo [1,5-a] pyrimidine compounds and pharmaceutical compositions containing them” (EiRx Therapeutics plc, priority 2005, published 2008).

By EC50 is commonly meant the concentration needed to bring the measured effect to its halfway point.

Experiment [1] deals with C9M-TF1 cells. Put plainly: Primary high-throughput screen, Alamar Blue, suspension cells. It is filed as cell-based. To be noted: Homo sapiens, 72 h, compound at 10 μM, read-out: percentage kill, C9M. As for the experimental part:
(§1) Daughter Plates containing 10 μl of a […] solution of test compound selected from among the candidate compounds stored at […] are thawed at room temperature. A 10 μL volume of 0.1% DMSO in PBS is added to all wells of Column 12 and the wells in Row A-F of Column 1. A 10 μl volume of a pre-determined concentration of the P13-Kinase inhibitor LY294002 is added to wells in Row G and H of Column 1. A 90 μl volume of the appropriate cell culture medium is then added to each well and mixed by repeated aspiration/dispensing. The compounds are at a final test concentration of 10 μM.
(§2) Once the Daughter Plates have been prepared the media is removed from all wells of the cell culture plate using an 8-Channel Vacuum Aspirator. The contents of the Daughter Plates are then transferred to the appropriate wells of their relevant Test Plates and the Test Plates are incubated for 72 h at 37° C. and 5% CO2. At the end of this period Test Plates are assayed by Alamar Blue. A 10 μl volume of Alamar Blue is added to all wells of the Test Plate. The Test Plates are incubated for […] at 37° C. and 5% CO2 and finally read using the BioTek SYNERGY plate reader (Excitation 530125 nm-Emission 590135 nm). Percentage inhibition is determined using Microsoft Excel spreadsheet calculations.
(§3) Suspension cells are split 24 hours prior to drug treatment in order to bring the cultures into the log phase of growth. On the day of the assay the cells are plated directly into the Daughter Plates at the appropriate pre-determined seeding density (Table 1) in 90 μl volumes, the concentration of the test compounds thus being reduced to 10 μM. Cells are plated in all wells apart from those in Column 12 which contain 901 normal culture medium alone. The plates are incubated for 72 h at 37° C. and 5% CO2 after which time they are assayed by Alamar Blue as per the preceding example.
(§4) The figures appearing in the columns are the percentage kill achieved by that compound at 10 μM.
A general note: Resazurin is reduced to fluorescent resorufin, in cell work by metabolically active cells.

In experiment [2] the test system is FRAT2 overexpresing TF1 (FRAT2-C9M-TF1 cells). Described as above. The note with it: Homo sapiens, compound at 10 μM, 72 h. Format: cell-based. As for the experimental part: as §1, §2, §3, §4
The test system of experiment [3] is A549 Non Small Cell Lung Carcinoma. In words: Primary high-throughput screen, Alamar Blue, adherent cells. Format: cell-based. To be noted: Homo sapiens, compound at 10 μM, 72 h, read-out: percentage kill, A549. The procedure: (§5) Adherent cells are plated at a pre-determined seeding density (Table 1) in flat-bottom 96 well plates 24 hours prior to drug treatment. The cell lines are plated in 100 μl volumes in each well. Cells are plated in all wells apart from those in Column 12 which contain 100 μL normal culture medium alone. These plates will be known as the Test Plates. The Test Plates are labelled with a Daughter Plate ID.
as §1, §2, §4

Experiment [4] relates to CACO2 Colon adenocarcinoma. The description is as above. Format: cell-based. The note with it: Homo sapiens, Caco-2; compound at 10 μM, 72 h; read-out: percentage kill, CAC02. As for the experimental part:
as §5, §1, §2, §4

Experiment [5] deals with HT29 Colorectal adenocarcinoma. The experiment is described as above. It is filed as cell-based. To be noted: Homo sapiens, HT-29; compound at 10 μM, 72 h; read-out: percentage kill, HT29. The procedure: as §5, §1, §2, §4
In experiment [6] the test system is LS123 Colon adenocarcinoma (Dukes' type B). The description is as above. It is filed as cell-based. The note with it: Homo sapiens, LS-123; compound at 10 μM, 72 h; read-out: percentage kill, LS123. The procedure: as §5, §1, §2, §4
Experiment [7] deals with MCF7 Mammary gland adenocarcinoma. Described as above. Format: cell-based. To be noted: Homo sapiens, compound at 10 μM, 72 h, read-out: percentage kill, MCF7. The procedure:
as §5, §1, §2, §4

For experiment [8], the system named is NCI ADR RES Breast adenocarcinoma (pleural effusion). The description is as above. It is filed as cell-based. To be noted: Homo sapiens, compound at 10 μM, 72 h, read-out: percentage kill, NCI ADR RES. The procedure: as §5, §1, §2, §4
Experiment [9] deals with PC3 Prostate carcinoma (bone metastasis). The description is as above. It is filed as cell-based. The note with it: compound at 10 μM, 72 h; read-out: percentage kill, PC3. The procedure:
as §5, §1, §2, §4

The test system of experiment [10] is SW480 Colon adenocarcinoma (Dukes' type B). The experiment is described as above. It is filed as cell-based. The note with it: Homo sapiens, compound at 10 μM, 72 h, read-out: percentage kill, SW480. The procedure: as §5, §1, §2, §4
Experiment [11] has as its system U1810 Non Small Cell Lung Carcinoma. The experiment is described as above. Format: cell-based. To be noted: U-1810; compound at 10 μM, 72 h; read-out: percentage kill, U1810. As for the experimental part: as §5, §1, §2, §4
Experiment [12] deals with C9M-TF1 cells. Put plainly: EC50 titration, Alamar Blue, suspension cells. Format: cell-based. To be noted: Homo sapiens, 72 h. As for the experimental part: (§6) On the day of the assay compounds are used to prepare dilution series on Titration Plates which are plated at ten times their final screening concentration in 10 μl aliquots.
(§7) Suspension cells are split 24 hours prior to drug treatment in order to bring the cultures into the log phase of growth. On the day of the assay the cells are plated directly into the Titration Plates at the appropriate pre-determined seeding density (Table 1) in 90 μl volumes thus reducing the concentration of the compounds to their final test concentration. The plates are incubated for 72 hours at 37° C. and 5% CO2 after which time they are assayed by Alamar Blue.
(§8) The EC50 values are calculated using the values obtained from the Alamar Blue readout which are converted into a “Percentage of the Untreated Control” and using Graph Pad Prism these values are plotted against the logarithm of the test concentration. Using a non-linear regression analysis a sigmoidal dose-response curve is generated from which the EC50 is determined.

The test system of experiment [13] is FRAT2-C9M-TF1 cells. Put plainly: EC50 titration, Alamar Blue, suspension cells. The note with it: Homo sapiens, 72 h, Alamar Blue. Format: cell-based, Human. As for the experimental part:
as §6, §7, §8

Experiment [14] deals with breast cancer cell line MCF7. In words: EC50 titration, Alamar Blue, adherent cells. It is filed as cell-based. The note with it: Homo sapiens, 72 h. The procedure:
as §6
(§9) For adherent cell lines plated 24 hours previously, a 90 μl volume of the appropriate cell culture medium is then added to each well of the Titration Plates and mixed by repeated aspiration/dispensing, thus taking the compounds to their final test concentration. Once the Titration Plates have been prepared the media is removed from all wells of the cell culture plate and the contents of the Titration Plates are then transferred to the appropriate wells of their relevant Test Plates and incubated for 72 h at 37° C. and 5% CO2 after which time they are assayed by Alamar Blue. Using a combination of Microsoft Excel and Graph Pad Prism, EC50s are determined.
as §8

Experiment [15] has as its system colon cancer cell line HT29. Put plainly: EC50 titration, Alamar Blue, adherent cells. It is filed as cell-based. To be noted: Homo sapiens, HT-29, 72 h. As for the experimental part:
as §6, §9, §8

The test system of experiment [16] is non-transformed breast cell line MCF10A. In words: EC50 titration, Alamar Blue, adherent cells. Format: cell-based. The note with it: Homo sapiens, MCF-10A, 72 h. As for the experimental part: as §6, §9, §8
Experiment [17] concerns HCT116. In words: EC50 titration, Alamar Blue. Format: cell-based. The note with it: Homo sapiens, HCT-116. As for the experimental part: as §6, §9, §8
Experiment [18] deals with LoVo. In words: EC50 titration, Alamar Blue. Format: cell-based. The note with it: Homo sapiens. As for the experimental part: as §6, §9, §8
The mark [19] stands for this setting: minus GMCSF, read-out: percentage kill, FRAT2−.
The mark [20] stands for this setting: plus GMCSF, read-out: percentage kill, FRAT2+.

Read-outs that look alike come from different tables or passages of the source.

For the compound `COc1ccc(-c2cnn3c(NCc4ccccn4)ccnc23)cc1OC` [Compound 2], the inhibition at 10 µM in [1] (first C9M column) is -2%; in [1] (second C9M column), 0%; in [2] (setting [19]), 57%; in experiment [2] (setting [20]), 33%; in [3], 18%; in [4], 66%. In addition, the inhibition at 10 µM in experiment [5] was found to be 60%; in experiment [6] it was 91%; in experiment [7] it was 68%; in experiment [8] it was 73%; in experiment [9] it was 4%; in experiment [10], 68%. Also, in [11], the inhibition at 10 µM amounted to 23%. For the same compound, the EC50 in experiment [12] worked out at 24 µM; in [13] (absence of growth factor), 6.31 µM; in [13] (presence of growth factor) it was 7.08 µM; in [14], 2.24 µM; in experiment [15], 4.37 µM; in [16] it was 20.4 µM. Besides, the concentration giving a half-maximal response (EC50) was 3 µM in [17] and 2.2 µM in [18].
As for `Fc1ccccc1-c1cnn2c(NCc3ccccn3)ccnc12` [Compound 6], the inhibition at 10 µM in [1] (first C9M column) is -1%; in [1] (second C9M column), -11%; in experiment [2] (setting [19]), 59%; in experiment [2] (setting [20]), 33%; in experiment [3], 6%; in experiment [4] it was 37%. Further, the inhibition at 10 µM is 20% in [5]; 72% in experiment [6]; 64% in experiment [7]; 51% in experiment [8]; -94% in experiment [9]; 3% in experiment [10]. The inhibition at 10 µM in experiment [11] was 11%. Besides, the 50% effective concentration (EC50) in experiment [12] amounted to 10 µM; in [13] (absence of growth factor) it was 5.75 µM; in experiment [13] (presence of growth factor), 5.13 µM; in [14], 1.32 µM; in experiment [15], 1.41 µM; in experiment [16], 23.4 µM.
Consider `CN(C)c1cccc(-c2cnn3c(NCc4ccccn4)ccnc23)c1` [Compound 7], for which the inhibition at 10 µM in experiment [1] (first C9M column) turned out to be 9%; in [1] (second C9M column), 23%; in experiment [2] (setting [19]) it was 53%; in experiment [2] (setting [20]) it was 27%; in experiment [3], 5%; in [4], 32%. Also, the inhibition at 10 µM in experiment [5] was 40%; in [6], 82%; in [7], 68%; in experiment [8] it was 63%; in experiment [9], -16%; in experiment [10], 44%. In experiment [11], the inhibition at 10 µM worked out at 18%. The EC50 in experiment [12] came to 20.4 µM; in experiment [13] (absence of growth factor) it was 6.61 µM; in experiment [13] (presence of growth factor), 5.01 µM; in [14], 2.34 µM; in experiment [15] it was 4.07 µM; in experiment [16], 11.5 µM.
Take `c1ccc(CNc2ccnc3c(-c4cccc5cccnc45)cnn23)nc1` [Compound 8]: the inhibition at 10 µM is 7% in experiment [1] (first C9M column); -4% in experiment [1] (second C9M column); 68% in [2] (setting [19]); 39% in experiment [2] (setting [20]); -3% in [3]; 71% in experiment [4]. Also, the inhibition at 10 µM was determined as 78% in [5]; 92% in experiment [6]; 83% in [7]; 85% in experiment [8]; 56% in [9]; 71% in experiment [10]. The inhibition at 10 µM in experiment [11] turned out to be 68%. In addition, the EC50 came out at 17.8 µM in experiment [12]; 5.62 µM in experiment [13] (absence of growth factor); 5.75 µM in [13] (presence of growth factor); 1.78 µM in experiment [14]; 1.51 µM in experiment [15]; 6.17 µM in experiment [16].
As to `COc1ccc(-c2cnn3c(NCc4ccccn4)ccnc23)cn1` [Compound 9], the inhibition at 10 µM in experiment [1] (first C9M column) was 9%; in experiment [1] (second C9M column), -5%; in [2] (setting [19]), 62%; in experiment [2] (setting [20]), 15%; in experiment [3] it was 7%; in experiment [4] it was 65%. Moreover, the inhibition at 10 µM in experiment [5] was determined as 69%; in [6], 80%; in experiment [7] it was 76%; in experiment [8], 64%; in experiment [9], 9%; in experiment [10], 58%. Moreover, the inhibition at 10 µM in experiment [11] was 52%. For the same compound, the EC50 in [12] worked out at 17.8 µM; in [13] (absence of growth factor), 3.39 µM; in experiment [13] (presence of growth factor) it was 2.04 µM; in experiment [14], 1.7 µM; in experiment [15], 2 µM; in [16], 12.9 µM.
As to `Cc1csc(-c2cnn3c(NCc4ccccn4)ccnc23)c1` [Compound 10], the inhibition at 10 µM in experiment [1] (first C9M column) is 14%; in experiment [1] (second C9M column), -8%; in [2] (setting [19]), 71%; in experiment [2] (setting [20]), 16%; in experiment [3] it was 8%; in [4] it was 25%. Besides, the inhibition at 10 µM is 68% in [5]; 89% in experiment [6]; 77% in [7]; 52% in experiment [8]; -45% in [9]; 51% in [10]. Moreover, in experiment [11], the inhibition at 10 µM turned out to be 16%. The EC50 in experiment [12] was 22.9 µM; in [13] (absence of growth factor) it was 5.37 µM; in experiment [13] (presence of growth factor) it was 4.68 µM; in [14], 1.86 µM; in experiment [15], 1.78 µM; in experiment [16], 20.4 µM.
